This note sets out measurements from US9939451B2, “Biomarker for detecting white matter stroke, containing toll-like receptor 2, and medical use of toll-like receptor 2” (AJOU UNIVERSITY INDUSTRY—ACADEMIC COOPERATION FOUNDATION, priority 2013, dated 2018).

Assay [1] concerns primary OL (oligodendrocyte) cultures exposed to oxygen-glucose deprivation. The assay can be described thus: LDH assay of OGD-induced OL death. The assay is classed as cell-based, mouse. The protocol:
Primary OL cultures were prepared from cortices of newborn C57BL/6 on postnatal day 0 (P0) to postnatal day 1 (P1), and/or TLR2 (−/−) mouse, according to the method reported in Journal of Visualized Experiment by O'Meara R. After 9-10 days in vitro, confluent mixed glial cultures were obtained. The mixed glial cultures were shaken at a temperature of about 37° C. for about 1 hour at a speed of about 200 rpm, so as to remove microglia. Afterwards, a second cycle of shaking was then performed at a temperature of about 37° C. for about 18 hours at a speed of about 250 rpm, so as to remove OLs from astrocyte monolayer. The cell suspensions obtained therefrom was plated on a bacterial grade Petri dish for about 1 hour to separate OLs from remaining microglia and astrocytes. […]
For quantification of OGD-induced OL death, LDH assay was performed using an assay kit (Takara Bio, Inc., Madison, Wis.) to measure LDH generated in a bathing medium in association with damaged OL at 24 hours after the onset of OGD challenge. The LDH level corresponding to typical cell death was determined in sister cultures exposed 1.5% Triton X-100 for 24 hours (complete cell death, CD). Baseline (BL) LDH levels were determined in a condition of only medium without OLs. Percentage of cell death in each experimental condition was calculated using a following formula. {% of OL death=(experimental value−BL)×100/(CD−BL)}

Assay [2] shares this test system. The assay can be described thus: TUNEL staining of OGD-induced OL death. As to conditions: Pam3CSK4 1 μg/ml added after 2 hours OGD; FIG. 5. It is filed as cell-based, mouse. As for the experimental part: Primary OL cultures were prepared from cortices of newborn C57BL/6 on postnatal day 0 (P0) to postnatal day 1 (P1), and/or TLR2 (−/−) mouse, according to the method reported in Journal of Visualized Experiment by O'Meara R. After 9-10 days in vitro, confluent mixed glial cultures were obtained. The mixed glial cultures were shaken at a temperature of about 37° C. for about 1 hour at a speed of about 200 rpm, so as to remove microglia. Afterwards, a second cycle of shaking was then performed at a temperature of about 37° C. for about 18 hours at a speed of about 250 rpm, so as to remove OLs from astrocyte monolayer. The cell suspensions obtained therefrom was plated on a bacterial grade Petri dish for about 1 hour to separate OLs from remaining microglia and astrocytes. Purified OLs were plated on a poly-D-lysine coated 12 well (1.5×10^5 cells/well) or 96 well (1.5×10^4 cells/well) or on a 9 mm coverslip (1.0×10^4 cells/coverslip).
For OGD challenge, the purified OLs were cultured for about 1 day in a serum-free differentiation medium, washed with PBS three times, and then, transferred to an anaerobic chamber (Forma Scientific, Marietta, Ohio). […] The cells were exposed to OGD for about 2 hours, and then, transferred to a normoxic chamber. […]

For the substance Pam3CSK4, in assay [1] (Pam3CSK4 1 μg/ml added after 2 hours OGD, LDH measured 24 hours after onset of OGD, FIG. 3), the “OGD-induced OL death (LDH release)” value is given as “reduced the extent of OGD-induced OL death”. Also, in assay [1] (TLR2 agonist applied after OGD to OLs cultured from WT mouse, readout not given), the “OGD-induced OL death (summary statement)” value is “substantially reduced OGD-induced OL death”. In addition, the “OGD-induced OL death (TUNEL staining)” value in assay [2] is “reduced the extent of OGD-induced OL death”.
